Test results from US20150335548A1, “Oral Care Composition” (COLGATE-PALMOLIVE COMPANY, priority 2012, published 2015).
Entries after “also recorded” stand apart in the source; their conditions may differ.

Legend:
[1] = tested on: 3-day old biofilm of the artificial mouth consortium of bacteria (A. naeslundii, S. oralis, V. parvula, L. casei, F. nucleatum) and S. mutans; experiment: In vitro biofilm removal, 3-day old biofilm (protocol of Example 2); type: cell-based; settings: 3-day old biofilm
Procedure: The 3-day old biofilm was grown on a 24 well plate using the artificial mouth consortium of bacteria (A. naeslundii, S. oralis, V. parvula, L. casei, F. nucleatum) and S. mutans. To generate the biofilm, plates were inoculated with saliva overnight to form a pellicle. The consortium of bacteria (1 mL) at an OD of ˜0.2 was added to each well. The bacterial media (Tryptic Soy Broth with 6% sucrose) was changed after 48 hours. The 3-day old biofilm was treated with the prototype formulation (500 μL) for 15 minutes on a plate shaker at 300 rpm. After incubation, the supernatant was discarded. The optical density of each well was measured and the percentage reduction in optical density relative to the control (water) was calculated to determine the effect of the prototype formulation on biofilm removal. […]
Water, untreated biofilm, commercially available mouthwash formulations with CPC (Cetyl pyridinium chloride) and a mouthwash containing five enzymes for combatting biofilm acted as […] for the experiment.

A. viscosus [2] = experiment: Growth inhibition of A. viscosus (optical density over time); type: cell-based
Procedure: The effects of 1-decyl-3-methylimidazolium (DMIM) chloride on bacterial growth were investigated in vitro. DMIM chloride was incorporated into a prototype mouth rinse as illustrated in Table 17. […] The growth inhibition was measured as a change in optical density over time.
The antibacterial effects of various ionic liquids were determined according to the protocol described in Example 12.

A. viscosus [3] = experiment: Short Interval Kill Test (SIKT); type: cell-based; settings: 0.3, 0.6 and 1 wt % in the prototype mouth rinse
Text: SIKT determines the kill effect of a test article at a predetermined exposure time. […] The reaction was neutralized after 30 seconds by adding a neutralizing broth. The reaction mixture was further diluted and plated on MCA (Microbial Count Agar) plates for viable bacterial count.

dental plaque = experiment: Dissolution of plaque; settings: water-insoluble plaque vortex mixed with ionic liquid at room temperature, centrifuged at 13,000 g
Procedure: Dental plaque samples were obtained from subjects and treated with water to remove any water soluble actives. The samples were centrifuged at 13,000 g and the supernatant was collected and discarded. The remaining plaque that was insoluble in water was used to evaluate the plaque solubilizing potential of the ionic liquids.
Ionic liquids were added to the plaque sample, and the plaque sample was vortex mixed at room temperature. To ensure that the plaque was not simply suspended in the ionic liquid, the plaque containing vial with the ionic liquid was subsequently centrifuged at 13,000 g.
Plaque may form a suspension when mixed with water and that, on centrifugation, it is visible as an insoluble pellet.

Row | Structure (SMILES) | biofilm removal, comparison in words ([1]; listed as DMIM chloride) | Percent Biofilm Removed ([1]; other ionic liquids) | growth inhibition of A. viscosus, in words (A. viscosus [2]; formulated at 0.312 wt %) | growth inhibition of A. viscosus, in words (A. viscosus [2]; formulated at 1 wt % in prototype mouth rinse of Table 17) | time to kill A. viscosus (A. viscosus [3]) | plaque dissolution (size of plaque pellet, visual) (dental plaque) | Percent Biofilm Removed ([1]; EMIM-based ionic liquids, […] in base prototype mouth rinse of Table 1) | optical density of A. viscosus culture, 0 h (A. viscosus [2]; 10% concentration in a mouth rinse, 0 h) | optical density of A. viscosus culture, 4 h (A. viscosus [2]; 10% concentration in a mouth rinse, 4 h) | optical density of A. viscosus culture, 22 h (A. viscosus [2]; 10% concentration in a mouth rinse, 22 h) | optical density of A. viscosus culture, 24 h (A. viscosus [2]; 10% concentration in a mouth rinse, 24 h)
1 | CCCCCCCCCCn1cc[n+](C)c1.[Cl-] [DMIM Cl, 1-decyl-3-methylimidazolium chloride] | significantly more effective in removing biofilm than EMIM chloride and BMIM chloride; also recorded: most effective in removing biofilm | 57.3% | growth inhibition of A. viscosus is maintained | greater growth inhibition of A. viscosus than a 0.075 wt % CPC mouthwash | ≤ 30 s | – | – | – | – | – | –
2 | CCn1cc[n+](C)c1.[Br-] [EMIM Br, 1-ethyl-3-methylimidazolium bromide] | – | – | – | – | – | size of the plaque pellet is reduced | 48.6% | 0.1482 | 0.2216 | 0.7598 | 0.8533
